These results are taken from patent US12559504B2, “Benzotriazole derivative” (UBE CORPORATION, priority 2019, dated 2026).

Data set [1] relates to NQO1. The data set can be described thus: NQO1 enzyme induction test (in vitro) in Hepa1c1c7 cells. It counts as cell-based. Particulars: Mus musculus, Hepa-1c1c7, 48 h, concentration to elevate the NQO1 activity by 1.5 times, about 48 hours, read-out: EC150. The protocol:
Each NQO1 assay was carried out by modifying a known method (Anal Biochem 1998; 169: 328-, Methods Enzymol 2004; 382: 243-). Hepa1c1c7 cells (mouse hepatocyte line manufacture by DS Pharma Biomedical Co., Ltd., REF. No. 95090613) were cultured (5% CO2, 37° C.). The cells were cultured in MEMα (manufactured by FUJIFILM Wako Pure Chemical Corporation, REF. 135-15175) medium comprising 10% FBS (manufactured by GIBCO, REF. 10082) and […]/streptomycin/amphotericin B (manufactured by GIBCO, REF. 15240), and dispensed into a 96 well plate (manufactured by Costar, REF. 3610) at 2.0×10^3 cells/well. On the next day, test compound (final concentration of […]: 0.1%) dissolved into DMSO (manufactured by FUJIFILM Wako Pure Chemical Corporation, REF. 043-07216) was added to each well, and the plate was further cultured for about 48 hours.
A cell lysate manufactured by Cell signaling Technology, Inc. (REF. 9803) with the addition of a Protease Inhibitor manufactured by Roche Diagnostics K.K. (REF. 11-873580001) was used. A reaction solution (which is a solution comprising trishydrochloric acid (25 mM), albumin […], Tween-20 (0.01%), glucose-6-phosphate dehydrogenase (2 U/mL), flavin-adenine dinucleotide (5 μM), glucose-6-phosphate (1 μM), nicotinamide adenine dinucleotide phosphate (30 μM), 3-(4,5-dimethyl-2-thiazolyl)-2,5-diphenyltetrazolium bromide (MTT) (0.03%), and menadione (50 μM)), and a stop solution (which is a solution comprising dicumarol (0.3 mM) and potassium dihydrogen phosphate (5 mM), pH 7.4) were prepared. After the medium was removed, cell lysate (50 μL) was added thereto, and the resulting mixture was shaken at room temperature for 20 minutes. The reaction solution (200 μL) was added thereto, and the resulting mixture was left to stand at room temperature for 5 minutes. The stop solution (50 μL) was added thereto, and absorbance at 540 nm (reference 750 nm) was measured.
Cell number was measured by Cell Titer Glo assay (manufactured by Promega Corporation, REF. G9242) by using another plate prepared according to the same conditions as those described above, and correction of absorbance was carried out. The test result was analyzed by Excel, and the EC150 value which is the concentration to elevate the NQO1 activity by 1.5 times was calculated.

For data set [2], the target named is T1, GST fusion human Keap1 (amino acid residue: 325-624) protein (Homo sapiens, UniProt Q14145).
T1 construct: GST fusion human Keap1 (amino acid residue: 325-624) protein; purchased Protein tech Ag0779
The data set can be described thus: Keap1-Nrf2 binding inhibition test (fluorescence polarization). Particulars: compound concentration of 100 nM; read-out: inhibition rate. As to the method:
The inhibitory activity of each test compound on the binding between Nrf2 and Keap1 was measured by the fluorescence polarization method. A solution consisting of 20 mM tris-hydrochloride pH7.5 (NIPPON GENE CO., LTD., REF: 318-90225), 150 mM NaCl [FUJIFILM Wako Pure Chemical. Corporation, REF: 191-01665], 0.05% Tween 20 (BioRAD, REF: 161-0781), and 5 mM DTT (FUJIFILM Wako Pure Chemical Corporation, REF: 049-08972) was used as a buffer solution. To a test compound solution (70 μL) adjusted to each concentration with 10% DMSO (FUJIFILM Wako Pure Chemical Corporation, REF: 043-07216) was added a buffer solution (350 μL) comprising 6 nM FITC-labeled Nrf2 peptide (FITC-Ahx-LDEETGEFL-NH2, Invitrogen) and 0.2 mg/mL of BSA (FUJIFILM Wako Pure Chemical Corporation, REF: 017-22231). Each 120 μL of the resulting mixture was dispensed into a black 96 well plate, and a buffer solution (80 μL) comprising 2.5 nM GST fusion human Keap1 (amino acid residue: 325-624) protein (Protein tech, REF: Ag0779) was added thereto. A Keap1-free buffer solution was added to some wells to prepare negative controls. Meanwhile, compound-free wells were used as positive controls. The plate was incubated at room temperature for 30 minutes, and each fluorescence polarization at excitation wavelength of 482 nm and fluorescence wavelength of 530 nm was measured by using a plate reader Clariostar (BMG Labtech). The fluorescence polarization of the negative control was set to be 100% inhibition, fluorescence polarization of the positive control was set to be 0% inhibition, and the inhibition rate of each test compound at 100 nM was calculated by using the following equation. Inhibition rate (%)=100−((Fluorescence polarization when test compound was added−Fluorescence polarization of negative control)/(Fluorescence polarization of positive control−Fluorescence polarization of negative control))×100

The subject of data set [3] is NQO1. Put plainly: NQO1 expression induction test in mouse kidney (single administration). It counts as in vivo. The settings on record: Mus musculus, po, 6 h, BALB/c mouse kidney, 6 hours after administration, ratio to control group. As to the method: Each test compound solution for administration was prepared by dissolving or suspending each test compound into a 0.5 w/v % aqueous solution of methylcellulose (0.5% MC) (manufactured by Wako Pure Chemical Industries, Ltd.).
Each prepared test compound was orally administered to a BALB/c mouse (female, provided by Charles River Laboratories Japan, Inc.). Non-treated group was used as a control group. After 6 hours from the administration, each mouse was anesthetized with isoflurane, and euthanized with bloodletting by incising a lower aorta. Immediately, the left kidney was excised, cut into small pieces, and then the cut kidney pieces were transferred to RNA later (Thermo Fisher Scientific).
Then, mRNA was extracted from the collected kidney pieces by using NucleoSpin (registered trademark) RNA Kit (Takara Bio Inc.), each concentration was quantified by FlexStation3 (Molecular Devices), and then the concentration was adjusted to a constant concentration. A reverse transcription synthesis of cDNA was carried out from the mRNA with the constant concentration by using PrimeScript™ RT reagent Kit with gDNA Eraser and PCR Thermal Cycler (Takara Bio Inc.). Then, in addition to the resulting cDNA, SYBR (registered trademark) Premix Ex Taq™ II and NQO1, GAPDH primer (Takara Bio Inc.) were used to carry out Real-time PCR by PCR Thermal Cycler Dice Real time (Takara Bio Inc.), and the NQO1 expression was quantified by using the GAPDH expression as the reference.
In order to evaluate the NQO1 expression induction in each group, the NQO1 expression induction ratio was calculated by using the following equation. (NQO1 expression induction ratio)=(Average NQO1 expression in test compound administered group)[…](Average NQO1 expression in control group)

The nature of data set [4]: Metabolism test using human liver microsome fractions. The settings on record: human liver microsomes, test compound 10 μmol/L, NADPH and UDP-glucuronic acid, 37° C. It counts as in vitro ADME. The protocol:
A reaction composition solution (comprising NADPH Regenerating System, Solution A (manufactured by Corning Inc., REF. 451220) (50 μL), NADPH Regenerating System, Solution B (manufactured by Corning Inc., REF. 451200) (10 μL), 250 mM UDP-glucuronic acid (40 μL), UGT Reaction Mix Solution B (manufactured by Corning Inc., REF. 451320) (200 μL), and distilled water (640 μL)) in which human liver microsomes (manufactured by Xenotech, Cat. No. H610) or monkey liver microsomes (manufactured by Xenotech, Cat. No. P2000) (corresponding to 1 mg of protein) were suspended was prepared. After the solution was incubated at 37° C. for 5 minutes, each test compound dissolved into DMSO (manufactured by FUJIFILM Wako Pure Chemical Corporation, Code No. 043-07216) was added to the solution so that the final concentration was set to be 10 μmol/L, and a reaction was initiated. After 0, 5, 10, 15, 20, and 30 minute(s) from the initiation of the metabolism reaction, 100 μL of the reaction solution was taken out of the reaction system, and added to 200 μL of acetonitrile to stop the reaction. After the reaction was completed, the reaction solution was subjected to a work-up such as deproteinization, and then subjected to an UV-HPLC analysis to carry out the following analysis.
The peak area of each test compound was calculated by LabSolution software (Shimadzu Corporation), and the residual ratio (%) at each culture time of test material was calculated by the following equation. Residual ratio (%)=Peak area at each culture time[…]Peak area at 0 (initial time)
Next, the residual amount (nmol/mg/mL) at each culture time of test material was calculated by the following equation. Residual amount (nmol/mg/mL)=Initial concentration of reaction solution (10 nmol/mg/mL)×residual ratio÷100
Finally, a graph in which the reaction time was plotted at horizontal axis and the residual amount was plotted at longitudinal axis was prepared on Excel, and the inclination was calculated as the elimination rate (pmol/min/mg-P) within the time range in which the graph was deemed linear.

T1 sequence (Q14145 325-624): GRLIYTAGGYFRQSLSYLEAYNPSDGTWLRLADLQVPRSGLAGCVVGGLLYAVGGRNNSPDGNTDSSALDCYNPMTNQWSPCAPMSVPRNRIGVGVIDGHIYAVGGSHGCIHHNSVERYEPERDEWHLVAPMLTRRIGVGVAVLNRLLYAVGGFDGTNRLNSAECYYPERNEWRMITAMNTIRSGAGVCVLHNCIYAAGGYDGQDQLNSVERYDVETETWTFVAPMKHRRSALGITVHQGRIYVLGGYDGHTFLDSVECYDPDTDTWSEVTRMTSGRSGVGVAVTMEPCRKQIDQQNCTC

As for `CC[C@@H]1CN(Cc2cc(C(c3ccc4c(nnn4C)c3C)C(C)(C)C(=O)O)ccc2C)Cc2ccc3ccncc3c2O1` (stereo partly drawn) [Example 62, 3-(1,4-dimethyl-1H-benzo[d][1,2,3]triazol-5-yl)-3-(3-(((R)-2-ethyl-2,3-dihydro-[1,4]oxazepino[6,7-h]isoquinolin-4 (5H)-yl)methyl)-4-methylphenyl)-2,2-dimethylpropanoic Acid], in data set [1], the EC (1.5-fold NQO1 activity) was 0.0005 to 0.005 µM. In addition, in data set [2], the inhibition at 0.1 µM was no less than 50%. Further, the fold induction at 30 mg/kg in data set [3] (Dose 30 mg/kg) was no more than 3.

For `CC[C@@H]1CN(Cc2cc(C(c3ccc4c(nnn4C)c3C)C(C)(C)C(=O)O)ccc2C)Cc2c(ccc3c2CCCC3)O1` (stereo partly drawn) [Example 5-(b), 3-(1,4-dimethyl-1H-benzo[d][1,2,3)triazol-5-yl)-3-(3-(((R)-4-ethyl-3,4,8,9,10,11-hexahydronaphtho(1,2-f) (1,4]oxazepin-2(1H)-yl)methyl)-4-methylphenyl)-2,2-dimethylpropanoic Acid], the EC (1.5-fold NQO1 activity) in data set [1] fell in the range of 0.05 to 0.5 µM.

With `CC[C@@H]1CN(Cc2cc(C(c3ccc4c(nnn4C)c3C)C(C)(C)C(=O)O)ccc2C)Cc2cc3[nH]ncc3cc2O1` (stereo partly drawn) [Example 64-(b), 3-(1,4-dimethyl-1H-benzo[d][1,2,3)triazol-5-yl)-3-(3-(((R)-6-ethyl-1,6,7,9-tetrahydro-8H-(1,4]oxazepino[7,6-f]indazol-8-yl)methyl)-4-methylphenyl)-2,2-dimethylpropanoic Acid], in data set [1], the EC (1.5-fold NQO1 activity) is 0.005 to 0.05 µM. Also, the Human metabolic rate result in data set [4] is given as “B (100≤metabolic rate<150 pmol/min/mg protein)”. For the same compound, the inhibition at 0.1 µM in data set [2] is no less than 50%.

Take `CC[C@@H]1CN(Cc2cc(C(c3ccc4c(nnn4C)c3C)C(C)(C)C(=O)O)ccc2C)Cc2c(ccc3cn[nH]c23)O1` (stereo partly drawn) [Example 20-(b), 3-(1,4-dimethyl-1H-benzo[d][1,2, 3]triazol-5-yl)-3-(3-(((R)-7-ethyl-1,7,8,10-tetrahydro-9H-[1,4]oxazepino[7,6-g]indazol-9-yl)methyl)-4-methylphenyl)-2,2-dimethylpropanoic Acid]: the EC (1.5-fold NQO1 activity) in data set [1] is 0.0005 to 0.005 µM. Further, the Human metabolic rate entry in data set [4] is reported as “D (200≤metabolic rate<250 pmol/min/me protein)”. The inhibition at 0.1 µM in data set [2] was no less than 50%.

Take `CC[C@@H]1CN(Cc2cc(C(c3ccc4c(nnn4C)c3C)C3(C(=O)O)CCCC3)ccc2C)Cc2cc3ncccc3cc2O1` (stereo partly drawn) [Example 83-(b), 1-((1,4-dimethyl-1H-benzo[d][1,2,3]triazol-5-yl) (3-(((R)-2-ethyl-2,3-dihydro-[1,4]oxazepino[7,6-g]quinolin-4 (5H)-yl)methyl)-4-methylphenyl)methyl)cyclopentane-1-carboxylic Acid]: the EC (1.5-fold NQO1 activity) in data set [1] was in the range of 0.005 to 0.05 µM. Also, in data set [4], the Human metabolic rate result was “C (150≤metabolic rate<200 pmol/min/mg protein)”. For the same compound, the fold induction at 20 mg/kg in data set [3] (Dose 20 mg/kg) was greater than 6.

On to `CC[C@@H]1CN(Cc2cc(C(c3ccc4c(nnn4C)c3C)C3(C(=O)O)CCC3)ccc2C)Cc2cc3ncccc3cc2O1` (single isomer, unassigned) [Example 87], for which, in data set [1], the EC (1.5-fold NQO1 activity) is 0.0005 to 0.005 µM. For the same compound, the Human metabolic rate result in data set [4] is recorded as “A (metabolic rate<100 pmol/min/mg protein)”. Also, in data set [2], the inhibition at 0.1 µM was no less than 50%.

`Cc1ccc(C(c2ccc3c(nnn3C)c2C)C(C)(C)C(=O)O)cc1CN1Cc2cc3ncccc3cc2OC2(CC2)C1` (single isomer, unassigned) [Example 85, 3-(3-((3′H-spiro[cyclopropane-1,2′-[1,4]oxazepino[7,6-g]quinoline]-4′(5′H)-yl)methyl)-4-methylphenyl)-3-(1,4-dimethyl-1H-benzo[d][1,2,3]triazol-5-yl)-2,2-dimethylpropanoic Acid]: the EC (1.5-fold NQO1 activity) in data set [1] is 0.0005 to 0.005 µM. Also, in data set [4], the Human metabolic rate result is listed as “A (metabolic rate<100 pmol/min/mg protein)”. The inhibition at 0.1 µM in data set [2] is no less than 50%.
